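Where inhibition never reached the appropriate level, the endpoint shown equals the highest concentration tested. Otherwise, values were interpolated linearly from a five-concentration, 48-hour dose response in 96-well plates. The concentration for 50% growth inhibition is given as GI50.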 Activity calls are given as the source filed them. No stated cut-off is given here; in the data, active = GI50 up to about 1.1 µM and inactive = higher.
Legend:
Test in all cases: DTP human tumour cell line panel, 48 h
SF-295 = tested on: SF-295
SK-MEL-5 = tested on: SK-MEL-5
M14 = tested on: M14
OVCAR-3 = tested on: OVCAR-3
OVCAR-5 = tested on: OVCAR-5
MDA-MB-435 = tested on: MDA-MB-435
SNB-75 = tested on: SNB-75
NCI-H23 = tested on: NCI-H23
KM12 = tested on: KM12
NCI-H226 = tested on: NCI-H226
EKVX = tested on: EKVX
HCT-15 = tested on: HCT-15
OVCAR-8 = tested on: OVCAR-8
HL-60 = tested on: HL-60
NCI/ADR-RES = tested on: NCI/ADR-RES
A498 = tested on: A498
HCT-116 = tested on: HCT-116
Hs-578T = tested on: Hs-578T
HT-29 = tested on: HT-29
RPMI-8226 = tested on: RPMI-8226

Row | Compound | GI50 (SF-295) | GI50 (SK-MEL-5) | GI50 (M14) | GI50 (OVCAR-3) | GI50 (OVCAR-5) | GI50 (MDA-MB-435) | GI50 (SNB-75) | GI50 (NCI-H23) | GI50 (KM12) | GI50 (NCI-H226) | GI50 (EKVX) | GI50 (HCT-15) [µM] | GI50 (OVCAR-8) | GI50 (HL-60) | GI50 (NCI/ADR-RES) | GI50 (A498) | GI50 (HCT-116) | GI50 (Hs-578T) | GI50 (HT-29) | GI50 (RPMI-8226)
1 | CCCNc1[nH]c(C(=O)c2ccccc2)c(N)c1C(=S)Nc1ccccc1 | > 100 µM (inactive) | > 100 µM (inactive) | > 100 µM (inactive) | > 100 µM (inactive) | > 100 µM (inactive) | > 100 µM (inactive) | > 100 µM (inactive) | > 100 µM (inactive) | > 100 µM (inactive) | > 100 µM (inactive) | > 100 µM (inactive) | > 100 | > 100 µM (inactive) | > 100 µM (inactive) | > 100 µM (inactive) | > 100 µM (inactive) | > 100 µM (inactive) | > 100 µM (inactive) | > 100 µM (inactive) | –
2 | COC1=C(OC)C(=O)C(Cc2c(Cl)nc3n2CCS3)=C(C)C1=O | 14.8 µM (inactive) | 11.7 µM (inactive) | 13.1 µM (inactive) | 16.7 µM (inactive) | 17.6 µM (inactive) | 13.9 µM (inactive) | – | 12.3 µM (inactive) | 14 µM (inactive) | – | 12.1 µM (inactive) | 17.1 | 15.3 µM (inactive) | 2.3 µM (inactive) | 12.8 µM (inactive) | 18.9 µM (inactive) | 11.7 µM (inactive) | 19.8 µM (inactive) | 17 µM (inactive) | 6.53 µM (inactive)
3 | CCOC(=O)CNC(=O)C(CSC(=O)N(O)c1ccc(Br)cc1)NC(=O)CCC(N)C(=O)OCC (centres undefined) | > 50 µM (inactive) | > 50 µM (inactive) | > 50 µM (inactive) | > 50 µM (inactive) | > 50 µM (inactive) | 24.4 µM (inactive) | – | > 50 µM (inactive) | 45.8 µM (inactive) | > 50 µM (inactive) | > 50 µM (inactive) | > 50 | > 50 µM (inactive) | 0.005 µM (active) | > 50 µM (inactive) | > 50 µM (inactive) | > 50 µM (inactive) | > 50 µM (inactive) | > 50 µM (inactive) | 21 µM (inactive)
4 | OC(c1nc2ccccc2[nH]1)C(O)C(O)C(O)c1nc2ccccc2[nH]1 (centres undefined) | > 100 µM (inactive) | > 100 µM (inactive) | > 100 µM (inactive) | > 100 µM (inactive) | > 100 µM (inactive) | > 100 µM (inactive) | > 100 µM (inactive) | – | > 100 µM (inactive) | > 100 µM (inactive) | > 100 µM (inactive) | > 100 | > 100 µM (inactive) | > 100 µM (inactive) | > 100 µM (inactive) | > 100 µM (inactive) | > 100 µM (inactive) | 91.4 µM (inactive) | > 100 µM (inactive) | > 100 µM (inactive)
5 | Cc1oc2c(c1C)S(=O)(=O)C(C#N)=C(N(C)C)N2 | > 100 µM (inactive) | > 100 µM (inactive) | > 100 µM (inactive) | > 100 µM (inactive) | > 100 µM (inactive) | > 100 µM (inactive) | > 100 µM (inactive) | > 100 µM (inactive) | > 100 µM (inactive) | > 100 µM (inactive) | > 100 µM (inactive) | > 100 | > 100 µM (inactive) | – | > 100 µM (inactive) | > 100 µM (inactive) | > 100 µM (inactive) | > 100 µM (inactive) | > 100 µM (inactive) | > 100 µM (inactive)
6 | O=C1C(Cl)=C(N2C(=O)CCC2=O)C(=O)c2ccccc21 | > 100 µM (inactive) | 19.8 µM (inactive) | 45.7 µM (inactive) | 17.9 µM (inactive) | 20.4 µM (inactive) | 19.8 µM (inactive) | > 100 µM (inactive) | 29 µM (inactive) | 41.8 µM (inactive) | > 100 µM (inactive) | 34.2 µM (inactive) | 13.2 | 37.1 µM (inactive) | 2.51 µM (inactive) | 89.3 µM (inactive) | 37.9 µM (inactive) | 22.8 µM (inactive) | > 100 µM (inactive) | 29 µM (inactive) | –
7 | Cc1ccc(C)c(COCCOCn2ccc(N)nc2=O)c1 | > 100 µM (inactive) | – | > 100 µM (inactive) | > 100 µM (inactive) | > 100 µM (inactive) | > 100 µM (inactive) | > 100 µM (inactive) | > 100 µM (inactive) | > 100 µM (inactive) | > 100 µM (inactive) | > 100 µM (inactive) | > 100 | > 100 µM (inactive) | 18.5 µM (inactive) | > 100 µM (inactive) | > 100 µM (inactive) | > 100 µM (inactive) | > 100 µM (inactive) | – | –
8 | NC1=C(N2CCOCC2)C(=O)NC2=N/C(=C\c3ccccc3)C(=O)N21 | 3.87 µM (inactive) | > 100 µM (inactive) | > 100 µM (inactive) | – | > 100 µM (inactive) | > 100 µM (inactive) | > 100 µM (inactive) | > 100 µM (inactive) | > 100 µM (inactive) | 97.9 µM (inactive) | > 100 µM (inactive) | 84.3 | > 100 µM (inactive) | 17.9 µM (inactive) | > 100 µM (inactive) | 64.3 µM (inactive) | > 100 µM (inactive) | > 100 µM (inactive) | > 100 µM (inactive) | 47.4 µM (inactive)

Reference: ChEMBL document CHEMBL1201862, “PubChem BioAssay data set” (2004)
